Tested on: patients with type 2 diabetes at high vascular risk
Experiment: Cardiovascular and Renal Outcomes Trial: linagliptin 5 mg once daily vs placebo on top of standard of care
Format: in vivo
Settings: for Hazard ratio for hospitalised heart failure: vs placebo
Method: The effect of linagliptin on cardiovascular risk in adult patients with type 2 diabetes mellitus and with increased CV risk evidenced by a history of established macrovascular or renal disease (e.g. as defined herein) was evaluated in a multi-center, multi-national, randomized, double-blind parallel group trial. The trial compared the risk of experiencing a major adverse cardiovascular event (MACE) between linagliptin and placebo when these were added to and used concomitantly with standard of care treatments for diabetes (HbA1c), cardiovascular risk factors and renal disease.
The primary endpoint in this trial was the time to first occurrence of three point (3P) MACE. A major adverse cardiac event was defined as a cardiovascular death or a nonfatal myocardial infarction (MI) or a nonfatal stroke. The statistical analysis plan tested for non-inferiority for the occurrence of (3P) MACE. […] The secondary endpoint was a renal composite, defined as renal death or sustained end stage renal disease or sustained decrease of 40% or more in eGFR.
Type 2 diabetes patient with insufficient glycemic control (naïve or pre-treated with any antidiabetic background medication, excluding treatment with GLP-1 receptor agonists, DPP-4inhibitors or SGLT-2 inhibitors if ≥consecutive 7 days, e.g. having HbA1c 6.5-10%), and high risk of cardiovascular events, e.g. defined by: • albuminuria (micro or macro) and previous macrovascular disease: e.g. defined according to Condition I as indicated below; • and/or • impaired renal function: e.g. as defined according to Condition II as indicated below;
Background and aims: People with type 2 diabetes (T2D) are at increased risk for hospitalization for heart failure (hHF), particularly in the setting of concomitant cardiovascular (CV) and/or kidney disease. […] Here we present analyses of HF outcomes with the DPP-4 inhibitor linagliptin (LINA) vs. placebo (PBO) from a Cardiovascular and Renal Outcomes Trial assessing cardiovascular safety and renal microvascular outcome in patients with type 2 diabetes at high vascular risk, a large CV outcomes trial that enrolled participants with T2D at high risk for hHF due to concomitant CV and/or chronic kidney disease. Materials and methods: People with T2D and concomitant CV and/or kidney disease were randomized to receive LINA 5 mg, or PBO once daily (1:1), on top of standard of care. All hHF, CV outcomes, and deaths were centrally adjudicated, with individual and composite HF-related outcomes analyses comparing LINA vs. placebo. Investigator-reported HF-related adverse events, whether or not confirmed by adjudication, were also analyzed. A Cox proportional hazards model adjusting for region and history of HF was used for analyses of first events. Recurrent hHF events were analyzed using a negative binomial model.
Methods: The present Cardiovascular and Renal Outcomes Trial randomized people with T2D and i) concomitant CV disease with UACR >30 mg/g or ii) prevalent CKD (i.e. GFR <45 ml/min/1.73m2 and/or UACR >200 mg/g) to receive the DPP-4 inhibitor linagliptin (5 mg) or placebo once daily in a double-blind fashion. The primary CV endpoint was 3P-MACE, with a key secondary kidney endpoint (adjudicated ESKD, renal death, or sustained ≥40% decrease in eGFR from baseline) and other renal outcomes (including albuminuria and eGFR slope) also assessed. Subgroups were assessed by baseline kidney function (eGFR ≥/<45 ml/min/1.73m2and eGFR ≥/<30, 45 or 60 ml/min/1.73m2).
Adults with type 2 diabetes, HbA1c 6.5-10.0% inclusive, and high CV risk were eligible for inclusion. […] Macrovascular disease eligibility criteria was based on documented and confirmed history of myocardial infarction, coronary artery disease, stroke, carotid artery disease, or peripheral artery disease. Participants with end-stage kidney disease (ESKD), defined as eGFR <15 or requiring maintenance dialysis, were excluded.

[1] = Urine albumin-to-creatinine ratio 30 to 300 mg/g
[2] = Urine albumin-to-creatinine ratio <30 mg/g
[3] = Urine albumin-to-creatinine ratio >300 mg/g

CC#CCn1c(N2CCC[C@@H](N)C2)nc2c1c(=O)n(Cc1nc(C)c3ccccc3n1)c(=O)n2C [Linagliptin, 1-[(4-methyl-quinazolin-2-yl)methyl]-3-methyl-7-(2-butyn-1-yl)-8-(3-(R)-amino-piperidin-1-yl)-xanthine]
3-point MACE: hazard ratio vs placebo (Race Other): 1.86
3-point MACE: patients with event/patients analyzed (Race Other): 23/166
Key secondary kidney outcome: hazard ratio vs placebo (Race Other): 1.16
Key secondary kidney outcome: patients with event/patients analyzed (Race Other): 23/166
Patients with event/patients analysed, hospitalised heart failure (Race Other): 6/166
3-point MACE: hazard ratio vs placebo (Race White): 0.97
3-point MACE: patients with event/patients analyzed (Race White): 340/2827
Key secondary kidney outcome: hazard ratio vs placebo (Race White): 1.03
Key secondary kidney outcome: patients with event/patients analyzed (Race White): 237/2827
Patients with event/patients analysed, hospitalised heart failure (Race White): 174/2827
3-point MACE: hazard ratio vs placebo (Region Asia): 0.90
3-point MACE: patients with event/patients analyzed (Region Asia): 29/272
Key secondary kidney outcome: hazard ratio vs placebo (Region Asia): 0.96
Key secondary kidney outcome: patients with event/patients analyzed (Region Asia): 29/272
Patients with event/patients analysed, hospitalised heart failure (Region Asia): 12/272
Hazard ratio for hospitalised heart failure (Region Asia): 0.47
3-point MACE: hazard ratio vs placebo (Region Europe + South Africa): 0.92
3-point MACE: patients with event/patients analyzed (Region Europe + South Africa): 182/1473
Key secondary kidney outcome: hazard ratio vs placebo (Region Europe + South Africa): 0.96
Key secondary kidney outcome: patients with event/patients analyzed (Region Europe + South Africa): 98/1473
Patients with event/patients analysed, hospitalised heart failure (Region Europe + South Africa): 101/1473
Hazard ratio for hospitalised heart failure (Region Europe + South Africa): 1.13
3-point MACE: hazard ratio vs placebo (Region Latin America): 1.10
3-point MACE: patients with event/patients analyzed (Region Latin America): 132/1156
Key secondary kidney outcome: hazard ratio vs placebo (Region Latin America): 1.07
Key secondary kidney outcome: patients with event/patients analyzed (Region Latin America): 149/1156
Patients with event/patients analysed, hospitalised heart failure (Region Latin America): 54/1156
Hazard ratio for hospitalised heart failure (Region Latin America): 0.99
3-point MACE: hazard ratio vs placebo (Region North America): 1.25
3-point MACE: patients with event/patients analyzed (Region North America): 91/593
Key secondary kidney outcome: hazard ratio vs placebo (Region North America): 1.19
Key secondary kidney outcome: patients with event/patients analyzed (Region North America): 51/593
Patients with event/patients analysed, hospitalised heart failure (Region North America): 42/593
Hazard ratio for hospitalised heart failure (Region North America): 0.65
Key secondary kidney outcome: hazard ratio vs placebo (SBP 140 mmHg or DBP ≥90 mmHg): 1.08
Key secondary kidney outcome: patients with event/patients analyzed (SBP 140 mmHg or DBP ≥90 mmHg): 222/1800
3-point MACE: hazard ratio vs placebo (SBP <140 mmHg and DBP <90 mmHg): 0.93
3-point MACE: patients with event/patients analyzed (SBP <140 mmHg and DBP <90 mmHg): 185/1694
Key secondary kidney outcome: hazard ratio vs placebo (SBP <140 mmHg and DBP <90 mmHg): 0.99
Key secondary kidney outcome: patients with event/patients analyzed (SBP <140 mmHg and DBP <90 mmHg): 105/1694
3-point MACE: hazard ratio vs placebo (SBP ≥140 mmHg or DBP ≥90 mmHg): 1.11
3-point MACE: patients with event/patients analyzed (SBP ≥140 mmHg or DBP ≥90 mmHg): 249/1800
3-point MACE: hazard ratio vs placebo (Sulfonylurea No): 0.98
3-point MACE: patients with event/patients analyzed (Sulfonylurea No): 315/2392
Key secondary kidney outcome: hazard ratio vs placebo (Sulfonylurea No): 1.10
Key secondary kidney outcome: patients with event/patients analyzed (Sulfonylurea No): 252/2392
Patients with event/patients analysed, hospitalised heart failure (Sulfonylurea No): 166/2392
Hazard ratio for hospitalised heart failure (Sulfonylurea No): 0.92
3-point MACE: hazard ratio vs placebo (Sulfonylurea Yes): 1.15
3-point MACE: patients with event/patients analyzed (Sulfonylurea Yes): 119/1102
Key secondary kidney outcome: hazard ratio vs placebo (Sulfonylurea Yes): 0.87
Key secondary kidney outcome: patients with event/patients analyzed (Sulfonylurea Yes): 75/1102
Patients with event/patients analysed, hospitalised heart failure (Sulfonylurea Yes): 43/1102
Hazard ratio for hospitalised heart failure (Sulfonylurea Yes): 0.82
Composite microvascular endpoint: patients, % (Table 6): (36.3) %
ESKD (component of kidney composite outcome): % (Table 6): (0.03) %
ESKD (component of kidney composite outcome): no. (Table 6): 1
Renal death, sustained ESKD, or sustained decrease of 50% or more in eGFR from baseline: % (Table 6): (7.5) %
Renal death, sustained ESKD, or sustained decrease of 50% or more in eGFR from baseline: no. (Table 6): 263
Sustained decrease of 40% or more in eGFR (component of kidney composite outcome): % (Table 6): (1.8) %
Sustained decrease of 40% or more in eGFR (component of kidney composite outcome): no. (Table 6): 63
Composite microvascular outcome: number of patients, % of n = 3494 (Table 9): 22.5%
3-point MACE: hazard ratio vs placebo (UACR 30 to 300 mg/g): 0.95
3-point MACE: patients with event/patients analyzed (UACR 30 to 300 mg/g): 158/1463
Key secondary kidney outcome: hazard ratio vs placebo (UACR 30 to 300 mg/g): 1.30
Key secondary kidney outcome: patients with event/patients analyzed (UACR 30 to 300 mg/g): 53/1463
3-point MACE: hazard ratio vs placebo (UACR <30 mg/g): 1.10
3-point MACE: patients with event/patients analyzed (UACR <30 mg/g): 67/696
Key secondary kidney outcome: hazard ratio vs placebo (UACR <30 mg/g): 1.46
Key secondary kidney outcome: patients with event/patients analyzed (UACR <30 mg/g): 22/696
3-point MACE: hazard ratio vs placebo (UACR >300 mg/g): 1.06
3-point MACE: patients with event/patients analyzed (UACR >300 mg/g): 208/1333
Key secondary kidney outcome: hazard ratio vs placebo (UACR >300 mg/g): 0.97
Key secondary kidney outcome: patients with event/patients analyzed (UACR >300 mg/g): 252/1333
Patients with event/patients analysed, hospitalised heart failure [1]: 72/1463
Hazard ratio for hospitalised heart failure [1]: 0.86
Patients with event/patients analysed, hospitalised heart failure [2]: 26/696
Hazard ratio for hospitalised heart failure [2]: 0.76
Patients with event/patients analysed, hospitalised heart failure [3]: 111/1333
Hazard ratio for hospitalised heart failure [3]: 0.99
HbA1c vs PBO across all GFR categories, in words (across GFR categories): reduced significantly
Risk for hypoglycemia vs PBO across all GFR categories, in words (across GFR categories): without increased risk for hypoglycemia
Progression of albuminuria across all eGFR categories, in words (across eGFR categories): consistent beneficial effect
3P-MACE: incidence rate per 1000 PY (all patients): 57.7 per 1000 patient years
